Among the data in PubChem BioAssay AID200 (DTP/NCI, 2004) are T/C values, retold here.

The assay concerns B6C3F1 mice, B16 melanoma ip, median survival T/C. Nature of the assay: NCI In Vivo Anticancer Drug Screen. Data for tumor model B16 Melanoma (intraperitoneal) in B6C3F1 mice. The following applies: endpoint: median survival time, schedule: Q01DX009 (ip), higher = longer survival. Put shortly: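 Readout: survival or tumor size in treated mice relative to vehicle controls (T/C). Model uses transplantable tumors grown in mice.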

The mark [1] stands for this setting: dose: 12.5 mg/kg/injection, vehicle: saline.
The mark [2] stands for this setting: dose: 25.0 mg/kg/injection, vehicle: saline.
The mark [3] stands for this setting: dose: 50.0 mg/kg/injection, vehicle: saline.
[4] abbreviates: dose: 100.0 mg/kg/injection, vehicle: saline.
Setting [5] is: dose: 200.0 mg/kg/injection, vehicle: saline.
[6] abbreviates: dose: 100.0 mg/kg/injection, vehicle: Klucel (hydroxypropylcellulose) (HPC).
The mark [7] stands for this setting: dose: 200.0 mg/kg/injection, vehicle: Klucel (hydroxypropylcellulose) (HPC).
Where [8] appears, read: dose: 25.0 mg/kg/injection, vehicle: saline with Tween-80.
Setting [9] is: dose: 50.0 mg/kg/injection, vehicle: saline with Tween-80.
[10] abbreviates: dose: 100.0 mg/kg/injection, vehicle: saline with Tween-80.
Where [11] appears, read: dose: 3.12 mg/kg/injection, vehicle: saline.
Where [12] appears, read: dose: 6.25 mg/kg/injection, vehicle: saline.
The mark [13] stands for this setting: dose: 12.5 mg/kg/injection, vehicle: saline with Tween-80.
Setting [14] is: dose: 200.0 mg/kg/injection, vehicle: saline with Tween-80.

“And” between values parts separate entries of the source, which are not always exact repeats. Equal entries are not always repeated. Toxic doses and inconclusive results are not listed.

Turning to `CC[C@@]1(O)C(=O)OCc2c1cc1n(c2=O)Cc2cc3cc(O)ccc3nc2-1`, the T/C was 155 % of control (dose: 0.37 mg/kg/injection, vehicle: suspension in saline); 160 % of control (dose: 0.38 mg/kg/injection, vehicle: other); 191 % of control (dose: 0.75 mg/kg/injection, vehicle: other); 183 % of control (dose: 0.75 mg/kg/injection, vehicle: suspension in saline); 197 % of control (dose: 1.5 mg/kg/injection, vehicle: other); 201 % of control (dose: 1.5 mg/kg/injection, vehicle: suspension in saline). Also, for the setting “dose: 3.0 mg/kg/injection, vehicle: suspension in saline”, the T/C was 201 % of control.
Take `S=C1CCCCN1`: the T/C (dose: 25.0 mg/kg/injection, vehicle: distilled water + alcohol) is 107 % of control; the T/C (dose: 50.0 mg/kg/injection, vehicle: distilled water + alcohol) was 98 % of control; the T/C (dose: 100.0 mg/kg/injection, vehicle: distilled water + alcohol) was 107 % of control; the T/C (dose: 200.0 mg/kg/injection, vehicle: distilled water + alcohol) was 101 % of control.
As for `C[N+](C)(C)c1ncnc2nc[nH]c12`, the T/C is, setting by setting: under setting [1], 98 % of control; under setting [2], 100 % of control; under setting [3], 114 % of control and 88 % of control; under setting [4], 93 % of control and 103 % of control; under setting [5], 93 % of control.
Take `CCCCCC[C@H]([C@H](C)O)n1cnc2c(N)ncnc21`: the T/C (dose: 12.5 mg/kg/injection, vehicle: Klucel (hydroxypropylcellulose) (HPC)) was 122 % of control; the T/C (dose: 25.0 mg/kg/injection, vehicle: Klucel (hydroxypropylcellulose) (HPC)) is 88 % of control; the T/C (dose: 50.0 mg/kg/injection, vehicle: Klucel (hydroxypropylcellulose) (HPC)) is 111 % of control and 92 % of control; the T/C under setting [6] is 84 % of control and 92 % of control; the T/C under setting [7] is 79 % of control.
For the molecule `O=C(C/C(=N\C(=S)Nc1cc(C(F)(F)F)ccc1Cl)NO)N1CCCC1`, the T/C reads like this: under setting [8], 123 % of control; under setting [9], 116 % of control; under setting [10], 94 % of control.
As for `O=NNc1ccc(Br)cn1`, the T/C (dose: 1.56 mg/kg/injection, vehicle: water) is 110 % of control and 112 % of control; the T/C (dose: 3.12 mg/kg/injection, vehicle: water) is 119 % of control and 124 % of control; the T/C (dose: 12.5 mg/kg/injection, vehicle: water) was 158 % of control and 170 % of control.
With `CC(C)=CCN1C(=O)c2ccccc2C1=O`, the T/C under setting [4] was 104 % of control; the T/C under setting [5] is 102 % of control; the T/C (dose: 400.0 mg/kg/injection, vehicle: saline) is 94 % of control.
For `COc1oc(C2C/C(=C/C(C)=C/C(C)=C/C(C)=C/c3ccc([N+](=O)[O-])cc3)CO2)c(C)c(=O)c1C` (stereo not given), the T/C runs as follows: (dose: 0.25 mg/kg/injection, vehicle: saline with Tween-80) 96 % of control; (dose: 0.5 mg/kg/injection, vehicle: saline with Tween-80) 98 % of control; (dose: 1.0 mg/kg/injection, vehicle: saline with Tween-80) 99 % of control; (dose: 2.0 mg/kg/injection, vehicle: saline with Tween-80) 103 % of control.
As to `OCCN1CCN(CC/C=C2/c3ccccc3Sc3ccc(Cl)cc32)CC1`, the T/C runs as follows: (dose: 1.56 mg/kg/injection, vehicle: saline) 101 % of control; under setting [11], 102 % of control; under setting [12], 103 % of control and 105 % of control; under setting [1], 93 % of control and 106 % of control; under setting [2], 100 % of control.
As to `Cc1cc2c(c3oc(C4(C)OC4C4OC4C)cc(=O)c13)C(=O)c1c(O)c(C3CC(C)(N(C)C)C(O)C(C)O3)cc(C3CC(N(C)C)C(O)C(C)O3)c1C2=O` (stereo not given), the T/C is, setting by setting: (dose: 2.0 micrograms/kg/injection, vehicle: Klucel (hydroxypropylcellulose) (HPC)) 123 % of control; (dose: 4.0 micrograms/kg/injection, vehicle: Klucel (hydroxypropylcellulose) (HPC)) 118 % of control.
Take `COc1ccc2c(c1OC(C)=O)-c1cc(O)cc3c1C(C2)N(C(=O)CN(CCCl)CCCl)CC3` (stereo not given): the T/C is 164 % of control (dose: 3.12 mg/kg/injection, vehicle: saline with Tween-80); 153 % of control (dose: 6.25 mg/kg/injection, vehicle: saline with Tween-80); 207 % of control under setting [13].
Take `NNc1nncc2ccccc12`: the T/C by setting is: under setting [1], 93 % of control; under setting [2], 98 % of control; under setting [3], 93 % of control.
As to `CC(O)C(NC(=O)OC(C)(C)C)C(=O)ON1C(=O)CCC1=O` (stereo not given), the T/C is, setting by setting: under setting [9], 98 % of control; under setting [10], 96 % of control; under setting [14], 91 % of control.
Regarding `CCc1nc(N)nc(N)c1-c1ccc(Cl)c(N=[N+]=[N-])c1`, the T/C reads like this: (dose: 12.5 mg/kg/injection, vehicle: distilled water + Tween-80) 100 % of control; (dose: 25.0 mg/kg/injection, vehicle: distilled water + Tween-80) 98 % of control and 102 % of control; (dose: 50.0 mg/kg/injection, vehicle: distilled water + Tween-80) 108 % of control (2×) and 109 % of control; (dose: 100.0 mg/kg/injection, vehicle: distilled water + Tween-80) 122 % of control; (dose: 200.0 mg/kg/injection, vehicle: distilled water + Tween-80) 157 % of control and 169 % of control.
For `CC(/C=C/c1ccccc1)=Nc1ccccc1`, the T/C was 99 % of control under setting [13]; 102 % of control under setting [8]; 99 % of control under setting [9]; 115 % of control under setting [10]; 110 % of control under setting [14].
Consider `CC#CCOCC(O)CCl` (stereo not given), for which the T/C was 96 % of control (dose: 25.0 mg/kg/injection, vehicle: suspension in saline); 105 % of control (dose: 50.0 mg/kg/injection, vehicle: suspension in saline); 106 % of control (dose: 100.0 mg/kg/injection, vehicle: suspension in saline); 102 % of control (dose: 200.0 mg/kg/injection, vehicle: suspension in saline).
Take `NC(=O)CCC(NC(=O)OCC1c2ccccc2-c2ccccc21)C(=O)O` (stereo not given): the T/C was 98 % of control under setting [6]; 93 % of control under setting [7]; 94 % of control (dose: 400.0 mg/kg/injection, vehicle: Klucel (hydroxypropylcellulose) (HPC)).
In the case of `CC(C)[C@](O)(C(=O)OCC1=CCN2CC[C@@H](O)[C@@H]12)[C@H](C)O`, the T/C reads like this: (dose: 25.0 mg/kg/injection, vehicle: water) 107 % of control; (dose: 50.0 mg/kg/injection, vehicle: water) 111 % of control and 116 % of control; (dose: 100.0 mg/kg/injection, vehicle: water) 111 % of control; (dose: 200.0 mg/kg/injection, vehicle: water) 117 % of control.
For `[Cl][Sn]([c]1ccccc1)[c]1ccccc1`, the T/C under setting [11] is 116 % of control; the T/C (dose: 3.13 mg/kg/injection, vehicle: saline) is 93 % of control; the T/C under setting [12] is 122 % of control and 106 % of control; the T/C under setting [1] is 107 % of control; the T/C under setting [2] was 118 % of control.
Consider `O=C(CCl)NC(Cc1ccc(O)cc1)C(=O)O` (stereo not given), for which the T/C is, setting by setting: under setting [9], 93 % of control; under setting [10], 87 % of control.
As to `O=[N+]([O-])O.O=[N+]([O-])O.[NH-]C1CCCCC1[NH-].[Pt+2]` (stereo not given), the T/C is 123 % of control (dose: 0.25 mg/kg/injection, vehicle: other) and 163 % of control (dose: 1.0 mg/kg/injection, vehicle: other).
